Test results from patent US20250222044A1, “LIMOSILACTOBACILLUS REUTERI GOLDGUT-LR99 AND APPLICATION THEREOF” (priority 2024, published 2025).

System: Limosilactobacillus reuteri GOLDGUT-LR99
Experiment: Carbon source utilization and oxidation experiment (AN Biolog micro-pore plate)
Assay type: cell-based
Conditions: substrate utilization by the strain; for Utilization (Y=OD590−OD750): 37° C. anaerobic culture for 24 hours
Description: The AN Biolog micro-pore plate was used for measuring the utilization and oxidation conditions of different carbon sources of Limosilactobacillus reuteri GOLDGUT-LR99, the AN microplate used nutrients and biochemical reagents, and the method included the following steps: 1 mL of Limosilactobacillus reuteri GOLDGUT-LR99 bacterial liquid of the strain to be detected at the end of logarithmic growth was pipetted and centrifuged, then the supernatant was removed, the cells was washed three times with the seed liquid and suspended with 1 mL of the seed liquid, 50 μL of the suspension was taken and diluted in 10 mL of the seed liquid, the diluent was subpacked in a Biolog plate (100 μL/pore) after mixing uniformly, and the Biolog plate with the diluent was placed in 37° C. for anaerobic culture for 24 hours. After the culture was finished, OD590 and OD750 were detected by using microplate reader, the numerical values were recorded, and the utilization conditions of carbohydrate, organic acid and other substances of the Limosilactobacillus reuteri GOLDGUT-LR99 were calculated, wherein the calculation method was as follows: Y=OD590−OD750;

Molecule	Utilization (Y=OD590−OD750)	utilization effect (in words)
OC[C@H]1O[C@H](O[C@H]2[C@H](O)[C@@H](O)[C@H](O)O[C@@H]2CO)[C@H](O)[C@@H](O)[C@@H]1O [Maltose]	− (when Y < 0.05, it is shown that the strain was not able to utilize this substance, marked as −)	–
OC[C@H]1O[C@@](CO)(O[C@H]2O[C@H](CO)[C@@H](O)[C@H](O)[C@H]2O)[C@@H](O[C@H]2O[C@H](CO)[C@@H](O)[C@H](O)[C@H]2O)[C@@H]1O [Melezitose]	++ (when Y > 0.1, it is shown that the strain was able to effectively utilize this substance, marked as++)	–
COC(C)=O [Methyl acetate]	++ (when Y > 0.1, it is shown that the strain was able to effectively utilize this substance, marked as++)	–
COC(=O)C(C)O (stereo not shown) [Methyl lactate]	+ (when 0.1 > Y > 0.05, it is shown that the strain was able to better utilize this substance, marked as +)	–
CC(=O)N[C@H]1C(O)O[C@H](CO)[C@H](O)[C@@H]1O (stereo partly drawn) [N-Acetyl-D-galactosamine]	− (when Y < 0.05, it is shown that the strain was not able to utilize this substance, marked as −)	–
CC(=O)N[C@H]1C(O)O[C@H](CO)[C@@H](O)[C@@H]1O (stereo partly drawn) [N-Acetyl-D-glucosamine]	− (when Y < 0.05, it is shown that the strain was not able to utilize this substance, marked as −)	–
CC(=O)N[C@H]1[C@@H](O)[C@H](O)[C@@H](CO)O[C@H]1O [N-Acetyl-β-D-mannosamine]	− (when Y < 0.05, it is shown that the strain was not able to utilize this substance, marked as −)	–
OC[C@H]1O[C@H](OC[C@H]2OC(O)(CO)[C@@H](O)[C@@H]2O)[C@H](O)[C@@H](O)[C@@H]1O (stereo partly shown) [Palatinose]	++ (when Y > 0.1, it is shown that the strain was able to effectively utilize this substance, marked as++)	–
CCC(=O)O [Propionic acid]	− (when Y < 0.05, it is shown that the strain was not able to utilize this substance, marked as −)	–
CC(=O)C(=O)O [Pyruvic acid]	+ (when 0.1 > Y > 0.05, it is shown that the strain was able to better utilize this substance, marked as +)	–
OC[C@@H](O)[C@@H](O)[C@@H](O)CO [Ribitol]	− (when Y < 0.05, it is shown that the strain was not able to utilize this substance, marked as −)	–
OCc1ccccc1O[C@@H]1O[C@H](CO)[C@@H](O)[C@H](O)[C@H]1O [Salicin]	− (when Y < 0.05, it is shown that the strain was not able to utilize this substance, marked as −)	–
OC[C@H]1O[C@H](OC[C@H]2O[C@H](OC[C@H]3O[C@H](O[C@]4(CO)O[C@H](CO)[C@@H](O)[C@@H]4O)[C@H](O)[C@@H](O)[C@@H]3O)[C@H](O)[C@@H](O)[C@H]2O)[C@H](O)[C@@H](O)[C@H]1O [Stachyose]	+ (when 0.1 > Y > 0.05, it is shown that the strain was able to better utilize this substance, marked as +)	–
NC(=O)CCC(=O)O [Succinamide acid]	+ (when 0.1 > Y > 0.05, it is shown that the strain was able to better utilize this substance, marked as +)	–
COC(=O)CCC(=O)O [Succinic acid methyl ester]	− (when Y < 0.05, it is shown that the strain was not able to utilize this substance, marked as −)	–
OC[C@H]1O[C@@](CO)(O[C@H]2O[C@H](CO)[C@@H](O)[C@H](O)[C@H]2O)[C@@H](O)[C@@H]1O [Sucrose]	− (when Y < 0.05, it is shown that the strain was not able to utilize this substance, marked as −)	–
Cc1cn([C@H]2C[C@H](O)[C@@H](CO)O2)c(=O)[nH]c1=O [Thymidine]	− (when Y < 0.05, it is shown that the strain was not able to utilize this substance, marked as −)	–
O=c1ccn([C@@H]2O[C@H](COP(=O)(O)O)[C@@H](O)[C@H]2O)c(=O)[nH]1 [Uridine-5′-monophosphate]	− (when Y < 0.05, it is shown that the strain was not able to utilize this substance, marked as −)	–
O=c1ccn([C@@H]2O[C@H](CO)[C@@H](O)[C@H]2O)c(=O)[nH]1 [Uridine]	− (when Y < 0.05, it is shown that the strain was not able to utilize this substance, marked as −)	–
OC[C@@H](O)[C@@H](O)CO [i-Erythritol]	− (when Y < 0.05, it is shown that the strain was not able to utilize this substance, marked as −)	–
O[C@H]1[C@H](O)[C@@H](O)[C@H](O)[C@@H](O)[C@H]1O [m-Inositol]	+ (when 0.1 > Y > 0.05, it is shown that the strain was able to better utilize this substance, marked as +)	–
O=C(O)C(O)C(O)C(=O)O (stereo not shown) [m-Tartaric acid]	+ (when 0.1 > Y > 0.05, it is shown that the strain was able to better utilize this substance, marked as +)	–
O=C(CO)[C@@H](O[C@H]1O[C@H](CO)[C@@H](O)[C@H](O)[C@H]1O)[C@H](O)[C@H](O)CO [turanose]	–	better utilization effect

Molecule	Utilization (Y=OD590−OD750)	utilization effect (in words)
OC[C@H]1O[C@@H]2O[C@H]3[C@H](O)[C@@H](O)[C@@H](O[C@H]4[C@H](O)[C@@H](O)[C@@H](O[C@H]5[C@H](O)[C@@H](O)[C@@H](O[C@H]6[C@H](O)[C@@H](O)[C@@H](O[C@H]7[C@H](O)[C@@H](O)[C@@H](O[C@H]1[C@H](O)[C@H]2O)O[C@@H]7CO)O[C@@H]6CO)O[C@@H]5CO)O[C@@H]4CO)O[C@@H]3CO [α-Cyclodextrin]	++ (when Y > 0.1, it is shown that the strain was able to effectively utilize this substance, marked as++)	–
OC[C@H]1O[C@H](O)[C@H](O)[C@@H](O)[C@@H]1O [α-D-Glucose]	− (when Y < 0.05, it is shown that the strain was not able to utilize this substance, marked as −)	–
OC[C@H]1O[C@@H](O[C@H]2[C@H](O)[C@@H](O)[C@@H](O)O[C@@H]2CO)[C@H](O)[C@@H](O)[C@H]1O [α-D-Lactose]	− (when Y < 0.05, it is shown that the strain was not able to utilize this substance, marked as −)	–
CCC(O)C(=O)O (stereo not drawn) [α-Hydroxybutyric acid]	− (when Y < 0.05, it is shown that the strain was not able to utilize this substance, marked as −)	–
O=C(O)CCC(=O)C(=O)O [α-Ketoglutaric acid]	− (when Y < 0.05, it is shown that the strain was not able to utilize this substance, marked as −)	–
CCCC(=O)C(=O)O [α-Ketovaleric acid]	− (when Y < 0.05, it is shown that the strain was not able to utilize this substance, marked as −)	–
COC1OC(CO)C(O)C(O)C1O [α-Methyl-D-galactoside]	− (when Y < 0.05, it is shown that the strain was not able to utilize this substance, marked as −)	–
CO[C@H]1O[C@H](CO)[C@@H](O)[C@H](O)[C@H]1O [α-Methyl-D-glucoside]	− (when Y < 0.05, it is shown that the strain was not able to utilize this substance, marked as −)	–
OC[C@H]1O[C@@H]2O[C@H]3[C@H](O)[C@@H](O)[C@@H](O[C@H]4[C@H](O)[C@@H](O)[C@@H](O[C@H]5[C@H](O)[C@@H](O)[C@@H](O[C@H]6[C@H](O)[C@@H](O)[C@@H](O[C@H]7[C@H](O)[C@@H](O)[C@@H](O[C@H]8[C@H](O)[C@@H](O)[C@@H](O[C@H]1[C@H](O)[C@H]2O)O[C@@H]8CO)O[C@@H]7CO)O[C@@H]6CO)O[C@@H]5CO)O[C@@H]4CO)O[C@@H]3CO [β-Cyclodextrin]	− (when Y < 0.05, it is shown that the strain was not able to utilize this substance, marked as −)	–
CC(O)CC(=O)O (stereo not drawn) [β-Hydroxybutyric acid]	− (when Y < 0.05, it is shown that the strain was not able to utilize this substance, marked as −)	–
CO[C@@H]1O[C@H](CO)[C@@H](O)[C@H](O)[C@H]1O [β-Methyl-D-galactoside]	− (when Y < 0.05, it is shown that the strain was not able to utilize this substance, marked as −)	–
CO[C@@H]1O[C@H](CO)[C@@H](O)[C@H](O)[C@H]1O [β-Methyl-D-glucoside]	− (when Y < 0.05, it is shown that the strain was not able to utilize this substance, marked as −)	–
D-Aminoglucuronate	++ (when Y > 0.1, it is shown that the strain was able to effectively utilize this substance, marked as++)	–
Dextrin	− (when Y < 0.05, it is shown that the strain was not able to utilize this substance, marked as −)	–
Glycine-L-aspartic acid	− (when Y < 0.05, it is shown that the strain was not able to utilize this substance, marked as −)	–
Hexanediol	− (when Y < 0.05, it is shown that the strain was not able to utilize this substance, marked as −)	–
L-Alanyl-L-M-glutamate	− (when Y < 0.05, it is shown that the strain was not able to utilize this substance, marked as −)	–
L-Alanyl-L-M-threonine	− (when Y < 0.05, it is shown that the strain was not able to utilize this substance, marked as −)	–
L-Asparagine acid	+ (when 0.1 > Y > 0.05, it is shown that the strain was able to better utilize this substance, marked as +)	–
L-Glutamate salt	− (when Y < 0.05, it is shown that the strain was not able to utilize this substance, marked as −)	–
L-Uracilic acid	− (when Y < 0.05, it is shown that the strain was not able to utilize this substance, marked as −)	–
L-Valine + L-M-Aspartamid acid	− (when Y < 0.05, it is shown that the strain was not able to utilize this substance, marked as −)	–
Maltotriose	++ (when Y > 0.1, it is shown that the strain was able to effectively utilize this substance, marked as++)	–
